In test [1] the target is human orexin 2 receptor (Homo sapiens (Human), UniProt O43614). Nature of the test: Human orexin 2 receptor radioligand binding (competitive, [3H]-EMPA, HEK293 cell preparations).
Test [2] deals with human orexin 1 receptor (Homo sapiens (Human), UniProt O43613). Nature of the test: Human orexin 1 receptor radioligand binding (competitive, [3H]-SB674042, CHO cell preparations).
Setting [3] is: human orexin 2 receptor, [3H]-EMPA competition binding, read-out: hOX2 Ki (nm).
Setting [4] is: human orexin 1 receptor, [3H]-SB674042 competition binding, read-out: hOX1 Ki (nm).

Where two headings read alike, the source gives them in different places.

The values below come from patent US9062078B2, “Substituted 7-azabicyles and their use as orexin receptor modulators” (priority 2013, dated 2015).

Chain of human orexin 1 receptor (O43613 whole entry): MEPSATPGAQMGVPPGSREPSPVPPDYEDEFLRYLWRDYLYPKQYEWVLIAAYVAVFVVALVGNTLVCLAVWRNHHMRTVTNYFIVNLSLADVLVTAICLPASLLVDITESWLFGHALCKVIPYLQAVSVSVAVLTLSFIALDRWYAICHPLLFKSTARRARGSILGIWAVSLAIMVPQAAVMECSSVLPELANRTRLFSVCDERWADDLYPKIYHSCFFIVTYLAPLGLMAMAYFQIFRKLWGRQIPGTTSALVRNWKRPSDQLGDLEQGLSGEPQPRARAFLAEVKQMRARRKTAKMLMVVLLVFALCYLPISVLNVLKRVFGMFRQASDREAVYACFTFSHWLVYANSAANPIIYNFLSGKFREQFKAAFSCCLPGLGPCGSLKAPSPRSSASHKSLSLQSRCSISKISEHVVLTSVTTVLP
Chain of human orexin 2 receptor (O43614 whole entry): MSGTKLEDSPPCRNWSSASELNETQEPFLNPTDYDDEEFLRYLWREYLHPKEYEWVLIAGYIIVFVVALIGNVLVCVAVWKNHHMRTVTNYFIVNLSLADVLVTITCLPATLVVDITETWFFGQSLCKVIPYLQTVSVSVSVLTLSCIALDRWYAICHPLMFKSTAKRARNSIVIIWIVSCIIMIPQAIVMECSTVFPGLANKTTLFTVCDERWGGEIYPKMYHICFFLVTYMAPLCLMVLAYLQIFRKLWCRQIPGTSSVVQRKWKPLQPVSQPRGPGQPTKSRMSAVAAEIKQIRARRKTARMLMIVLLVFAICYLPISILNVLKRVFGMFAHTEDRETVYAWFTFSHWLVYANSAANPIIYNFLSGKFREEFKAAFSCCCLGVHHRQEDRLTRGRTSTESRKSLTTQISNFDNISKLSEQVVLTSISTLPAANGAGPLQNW

`Cc1ccc(C(=O)N2C3CCC2C(COc2ccccn2)C3)c(-n2nccn2)n1` (racemic) [Example 128, (±)-(6-methyl-2-(2H-1,2,3-triazol-2-yl)pyridin-3-yl)(2-((pyridin-2-yloxy)methyl)-7-azabicyclo[2.2.1]heptan-7-yl)methanone]: the Ki in test [1] (setting [3]) is no less than 10000 nM; in test [2] (setting [4]), 5700 nM.
With `O=C(c1cccc(F)c1-n1nccn1)N1C2CCC1C(COc1ccccn1)C2` (racemic) [Example 129, (±)-(3-fluoro-2-(2H-1,2,3-triazol-2-yl)phenyl)(2-((pyridin-2-yloxy)methyl)-7-azabicyclo[2.2.1]heptan-7-yl)methanone], the Ki in test [1] (setting [3]) was 1000 nM; in test [2] (setting [4]), 190 nM.
Consider `Cc1ccc(C(=O)N2C3CCC2C(COc2ccccn2)C3)c(-n2ccnn2)n1` (racemic) [Example 130, (±)-(6-methyl-2-(1H-1,2,3-triazol-1-yl)pyridin-3-yl)(2-((pyridin-2-yloxy)methyl)-7-azabicyclo[2.2.1]heptan-7-yl)methanone], for which the Ki in test [1] (setting [3]) worked out at 7200 nM; in test [2] (setting [4]) it was 3700 nM.
For `Cc1ccc(C(=O)N2C3CCC2C(COc2nccc(C(F)(F)F)n2)C3)c(-n2nccn2)n1` (racemic) [Example 131, (±)-(6-methyl-2-(2H-1,2,3-triazol-2-yl)pyridin-3-yl)(2-(((4-(trifluoromethyl)pyrimidin-2-yl)oxy)methyl)-7-azabicyclo[2.2.1]heptan-7-yl)methanone], the Ki in test [1] (hOX2 Ki (nm)) and in test [2] (hOX1 Ki (nm)) was no less than 10000 nM throughout.
Take `Cc1ccc(C(=O)N2C3CCC2C(COc2nccc(C(F)(F)F)n2)C3)c(-n2ccnn2)n1` (racemic) [Example 132, (±)-(6-methyl-2-(1H-1,2,3-triazol-1-yl)pyridin-3-yl)(2-(((4-(trifluoromethyl)pyrimidin-2-yl)oxy)methyl)-7-azabicyclo[2.2.1]heptan-7-yl)methanone]: the Ki in test [1] (setting [3]) is 7400 nM; in test [2] (hOX1 Ki (nm)) it was no less than 10000 nM.
As to `Cc1noc(-c2ccccc2C(=O)N2C3CCC2C(COc2nccc(C(F)(F)F)n2)C3)n1` (racemic) [Example 133, (±)-(2-(3-methyl-1,2,4-oxadiazol-5-yl)phenyl)(2-(((4-(trifluoromethyl)pyrimidin-2-yl)oxy)methyl)-7-azabicyclo[2.2.1]heptan-7-yl)methanone], the figures for the Ki in test [1] (setting [3]) and in test [2] (setting [4]) were 950 nM and 1400 nM, respectively.
`O=C(c1cccc(F)c1-n1nccn1)N1C2CCC1C(COc1nccc(C(F)(F)F)n1)C2` (racemic) [Example 134, (±)-(3-fluoro-2-(2H-1,2,3-triazol-2-yl)phenyl)(2-(((4-(trifluoromethyl)pyrimidin-2-yl)oxy)methyl)-7-azabicyclo[2.2.1]heptan-7-yl)methanone]: the Ki in test [1] (hOX2 Ki (nm)) was 690 nM; in test [2] (hOX1 Ki (nm)) it was 1500 nM.
Consider `Cc1ccc(OCC2CC3CCC2N3C(=O)c2ccc(C)nc2-n2nccn2)nc1` (racemic) [Example 135, (±)-(6-methyl-2-(2H-1,2,3-triazol-2-yl)pyridin-3-yl)(2-(((5-methylpyridin-2-yl)oxy)methyl)-7-azabicyclo[2.2.1]heptan-7-yl)methanone], for which the inhibition constant Ki in test [1] (setting [3]) was 3900 nM; in test [2] (hOX1 Ki (nm)) it was 5400 nM.
Regarding `Cc1ccc(OCC2CC3CCC2N3C(=O)c2ccc(C)nc2-n2ccnn2)nc1` (racemic) [Example 136, (±)-(6-methyl-2-(1H-1,2,3-triazol-1-yl)pyridin-3-yl)(2-(((5-methylpyridin-2-yl)oxy)methyl)-7-azabicyclo[2.2.1]heptan-7-yl)methanone], the Ki in test [1] (setting [3]) stood at 1200 nM; in test [2] (hOX1 Ki (nm)) it was 6800 nM.
Turning to `Cc1ccc(OCC2CC3CCC2N3C(=O)c2ccccc2-c2nc(C)no2)nc1` (racemic) [Example 137, (±)-(2-(3-methyl-1,2,4-oxadiazol-5-yl)phenyl)(2-(((5-methylpyridin-2-yl)oxy)methyl)-7-azabicyclo[2.2.1]heptan-7-yl)methanone], the Ki in test [1] (setting [3]) was found to be 425 nM; in test [2] (setting [4]) it was 950 nM.
For `Cc1ccc(OCC2CC3CCC2N3C(=O)c2cccc(F)c2-n2nccn2)nc1` (racemic) [Example 138, (±)-(3-fluoro-2-(2H-1,2,3-triazol-2-yl)phenyl)(2-(((5-methylpyridin-2-yl)oxy)methyl)-7-azabicyclo[2.2.1]heptan-7-yl)methanone], the inhibition constant (Ki) in test [1] (setting [3]) amounted to 250 nM; in test [2] (setting [4]), 606 nM.
Take `Cc1cccc(OCC2CC3CCC2N3C(=O)c2ccc(C)nc2-n2nccn2)n1` (racemic) [Example 139, (±)-(6-methyl-2-(2H-1,2,3-triazol-2-yl)pyridin-3-yl)(2-(((6-methylpyridin-2-yl)oxy)methyl)-7-azabicyclo[2.2.1]heptan-7-yl)methanone]: the Ki was 6500 nM in test [1] (setting [3]) and 4400 nM in test [2] (setting [4]).
The corresponding values for `Cc1cccc(OCC2CC3CCC2N3C(=O)c2ccc(C)nc2-n2ccnn2)n1` (racemic) [Example 140, (±)-(6-methyl-2-(1H-1,2,3-triazol-1-yl)pyridin-3-yl)(2-(((6-methylpyridin-2-yl)oxy)methyl)-7-azabicyclo[2.2.1]heptan-7-yl)methanone] are 2300 nM and 3100 nM.
In the same order, the values of `Cc1cccc(OCC2CC3CCC2N3C(=O)c2ccccc2-c2nc(C)no2)n1` (racemic) [Example 141, (±)-(2-(3-methyl-1,2,4-oxadiazol-5-yl)phenyl)(2-(((6-methylpyridin-2-yl)oxy)methyl)-7-azabicyclo[2.2.1]heptan-7-yl)methanone] are 300 nM and 280 nM.
For `Cc1cccc(OCC2CC3CCC2N3C(=O)c2cccc(F)c2-n2nccn2)n1` (racemic) [Example 142, (±)-(3-fluoro-2-(2H-1,2,3-triazol-2-yl)phenyl)(2-(((6-methylpyridin-2-yl)oxy)methyl)-7-azabicyclo[2.2.1]heptan-7-yl)methanone], the figures for the inhibitory constant (Ki) in test [1] (setting [3]) and in test [2] (setting [4]) were 300 nM and 207 nM, respectively.
Regarding `Cc1ccc(C(=O)N2C3CCC2C(COc2cccc(C(F)(F)F)n2)C3)c(-n2nccn2)n1` (racemic) [Example 143, (±)-(6-methyl-2-(2H-1,2,3-triazol-2-yl)pyridin-3-yl)(2-(((6-(trifluoromethyl)pyridin-2-yl)oxy)methyl)-7-azabicyclo[2.2.1]heptan-7-yl)methanone], the inhibition constant (Ki) came to 4600 nM in test [1] (hOX2 Ki (nm)) and 3900 nM in test [2] (setting [4]).
With `Cc1ccc(C(=O)N2C3CCC2C(COc2cccc(C(F)(F)F)n2)C3)c(-n2ccnn2)n1` (racemic) [Example 144, (±)-(6-methyl-2-(1H-1,2,3-triazol-1-yl)pyridin-3-yl)(2-(((6-(trifluoromethyl)pyridin-2-yl)oxy)methyl)-7-azabicyclo[2.2.1]heptan-7-yl)methanone], the inhibition constant (Ki) in test [1] (hOX2 Ki (nm)) turned out to be 3200 nM; in test [2] (setting [4]), 3600 nM.
As to `Cc1noc(-c2ccccc2C(=O)N2C3CCC2C(COc2cccc(C(F)(F)F)n2)C3)n1` (racemic) [Example 145, (±)-(2-(3-methyl-1,2,4-oxadiazol-5-yl)phenyl)(2-(((6-(trifluoromethyl)pyridin-2-yl)oxy)methyl)-7-azabicyclo[2.2.1]heptan-7-yl)methanone], the values for the inhibition constant Ki in test [1] (hOX2 Ki (nm)) and in test [2] (setting [4]) were 330 nM and 340 nM, respectively.
Turning to `O=C(c1cccc(F)c1-n1nccn1)N1C2CCC1C(COc1cccc(C(F)(F)F)n1)C2` (racemic) [Example 146, (±)-(3-fluoro-2-(2H-1,2,3-triazol-2-yl)phenyl)(2-(((6-(trifluoromethyl)pyridin-2-yl)oxy)methyl)-7-azabicyclo[2.2.1]heptan-7-yl)methanone], the values for the Ki in test [1] (setting [3]) and in test [2] (setting [4]) were 196 nM and 180 nM, respectively.
Turning to `Cc1ccc(C(=O)N2C3CCC2C(COc2cnc4ccccc4n2)C3)c(-n2ccnn2)n1` (racemic) [Example 148, (±)-(6-methyl-2-(1H-1,2,3-triazol-1-yl)pyridin-3-yl)(2-((quinoxalin-2-yloxy)methyl)-7-azabicyclo[2.2.1]heptan-7-yl)methanone], the Ki came out at 3200 nM in test [1] (setting [3]) and 6300 nM in test [2] (setting [4]).
The corresponding values for `Cc1noc(-c2ccccc2C(=O)N2C3CCC2C(COc2cnc4ccccc4n2)C3)n1` (racemic) [Example 149, (±)-(2-(3-methyl-1,2,4-oxadiazol-5-yl)phenyl)(2-((quinoxalin-2-yloxy)methyl)-7-azabicyclo[2.2.1]heptan-7-yl)methanone] are 2000 nM and 220 nM.
In the case of `O=C(c1cccc(F)c1-n1nccn1)N1C2CCC1C(COc1cnc3ccccc3n1)C2` (racemic) [Example 150, (±)-(3-fluoro-2-(2H-1,2,3-triazol-2-yl)phenyl)(2-((quinoxalin-2-yloxy)methyl)-7-azabicyclo[2.2.1]heptan-7-yl)methanone], the inhibition constant (Ki) in test [1] (setting [3]) came to 990 nM; in test [2] (setting [4]) it was 180 nM.
The corresponding values for `Cc1cc(C)nc(OCC2CC3CCC2N3C(=O)c2ccc(C)nc2-n2nccn2)n1` (racemic) [Example 151, (±)-(2-(((4,6-dimethylpyrimidin-2-yl)oxy)methyl)-7-azabicyclo[2.2.1]heptan-7-yl)(6-methyl-2-(2H-1,2,3-triazol-2-yl)pyridin-3-yl)methanone] are no less than 10000 nM and no less than 10000 nM.
Regarding `Cc1cc(C)nc(OCC2CC3CCC2N3C(=O)c2ccc(C)nc2-n2ccnn2)n1` (racemic) [Example 152, (±)-(2-(((4,6-dimethylpyrimidin-2-yl)oxy)methyl)-7-azabicyclo[2.2.1]heptan-7-yl)(6-methyl-2-(1H-1,2,3-triazol-1-yl)pyridin-3-yl)methanone], the inhibition constant Ki is 5900 nM in test [1] (setting [3]) and no less than 10000 nM in test [2] (setting [4]).
Consider `Cc1cc(C)nc(OCC2CC3CCC2N3C(=O)c2ccccc2-c2nc(C)no2)n1` (racemic) [Example 153, (±)-(2-(((4,6-dimethylpyrimidin-2-yl)oxy)methyl)-7-azabicyclo[2.2.1]heptan-7-yl)(2-(3-methyl-1,2,4-oxadiazol-5-yl)phenyl)methanone], for which the Ki in test [1] (setting [3]) turned out to be 440 nM; in test [2] (setting [4]), 1100 nM.
